Target: T1, Nuclear factor erythroid 2-related factor 2 (Homo sapiens, UniProt Q16236)
T1 sequence (Q16236 whole entry): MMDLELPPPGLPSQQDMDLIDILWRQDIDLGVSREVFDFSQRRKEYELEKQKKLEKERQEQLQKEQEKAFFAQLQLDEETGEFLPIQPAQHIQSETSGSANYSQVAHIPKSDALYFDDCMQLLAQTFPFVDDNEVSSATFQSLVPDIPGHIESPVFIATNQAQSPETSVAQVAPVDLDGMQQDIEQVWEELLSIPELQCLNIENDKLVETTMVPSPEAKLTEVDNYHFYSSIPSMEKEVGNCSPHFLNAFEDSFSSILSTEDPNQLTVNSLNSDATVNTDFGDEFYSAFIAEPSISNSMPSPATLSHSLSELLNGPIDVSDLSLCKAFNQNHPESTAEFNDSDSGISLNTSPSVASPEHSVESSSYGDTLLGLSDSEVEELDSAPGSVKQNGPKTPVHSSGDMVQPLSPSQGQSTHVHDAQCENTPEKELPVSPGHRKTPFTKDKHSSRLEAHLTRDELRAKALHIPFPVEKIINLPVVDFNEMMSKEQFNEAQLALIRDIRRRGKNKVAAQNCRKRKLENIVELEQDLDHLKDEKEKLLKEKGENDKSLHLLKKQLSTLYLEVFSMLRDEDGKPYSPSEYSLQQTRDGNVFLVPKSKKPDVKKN
Test: Induction of Nrf2-mediated ARE activity in human HepG2-ARE-C8 cells after 12 hrs by luciferase reporter gene assay

| EC50 [µM] | SMILES |
| --- | --- |
| > 100 | O=C(/C=C1\NCC2c3ccccc3CCN2C1=O)c1ccccc1F (configuration not stated) |
| > 100 | COc1cccc(C(=O)/C=C2\NCC3c4ccccc4CCN3C2=O)c1 (configuration not stated) |
| 58.5 | COc1cccc2c1CCN1C(=O)/C(=C/C(=O)c3ccccc3)NCC21 (configuration not stated) |
| > 100 | O=C(/C=C1\NCC2c3ccccc3CCN2C1=O)c1cccc(C(F)(F)F)c1 (configuration not stated) |
| > 100 | COc1cccc(C(=O)/C=C2\NCC3c4cc(OC)ccc4CCN3C2=O)c1 (configuration not stated) |
| 81.5 | COc1cc2c(cc1OC)C1CN/C(=C\C(=O)c3ccc(F)cc3)C(=O)N1CC2 (configuration not stated) |
| > 100 | O=C(/C=C1\NCC2c3ccccc3CCN2C1=O)c1cccc(F)c1 (configuration not stated) |
| > 100 | Cc1ccc(C(=O)/C=C2\NCC3c4ccccc4CCN3C2=O)cc1 (configuration not stated) |
| > 100 | COc1cccc2c1CCN1C(=O)/C(=C/C(=O)c3ccccc3F)NCC21 (configuration not stated) |
| 59.1 | O=C(/C=C1\NCC2c3ccccc3CCN2C1=O)c1cccc(Br)c1 (configuration not stated) |
| 93 | COc1ccc(C(=O)/C=C2\NCC3c4ccccc4CCN3C2=O)cc1OC (configuration not stated) |
| > 100 | O=C(/C=C1\NCC2c3ccccc3CCN2C1=O)c1ccc(Cl)cc1Cl (configuration not stated) |
| > 100 | COc1cc2c(cc1OC)C1CN/C(=C\C(=O)c3cccc(Cl)c3)C(=O)N1CC2 (configuration not stated) |
| > 100 | COc1cccc2c1CCN1C(=O)/C(=C/C(=O)c3cccc(F)c3)NCC21 (configuration not stated) |
| > 100 | O=C(/C=C1\NCC2c3ccccc3CCN2C1=O)c1ccccc1[N+](=O)[O-] (configuration not stated) |
| > 100 | COc1ccc2c(c1)C1CN/C(=C\C(=O)c3ccccc3)C(=O)N1CC2 (configuration not stated) |
| > 100 | COc1ccccc1C(=O)/C=C1\NCC2c3ccccc3CCN2C1=O (configuration not stated) |
| > 100 | COc1ccc2c(c1)C1CN/C(=C\C(=O)c3cccc(Cl)c3)C(=O)N1CC2 (configuration not stated) |
| > 100 | O=C(/C=C1\NCC2c3ccccc3CCN2C1=O)c1cccc(Cl)c1 (configuration not stated) |
| > 100 | O=C(/C=C1\NCC2c3ccccc3CCN2C1=O)c1ccccc1Cl (configuration not stated) |
| > 100 | O=C(/C=C1\NCC2c3ccccc3CCN2C1=O)c1ccc(-c2ccccc2)cc1 (configuration not stated) |

| EC50 [µM] | SMILES |
| --- | --- |
| > 100 | COc1ccc2c(c1)CCN1C(=O)/C(=C/C(=O)c3ccccc3)NCC21 (configuration not stated) |
| 58.9 | O=C(/C=C1\NCC2c3ccccc3CCN2C1=O)c1cc(F)cc(F)c1 (configuration not stated) |
| > 100 | COc1cc2c(cc1OC)C1CN/C(=C\C(=O)c3ccccc3)C(=O)N1CC2 (configuration not stated) |
| > 100 | O=C(/C=C1\NCC2c3ccccc3CCN2C1=O)c1ccc(F)c(F)c1 (configuration not stated) |
| 75.9 | COc1cc2c(cc1OC)C1CN/C(=C\C(=O)c3ccccc3F)C(=O)N1CC2 (configuration not stated) |
| > 100 | COc1ccc(C(=O)/C=C2\NCC3c4ccccc4CCN3C2=O)cc1 (configuration not stated) |
| 49.6 | COc1cc2c(cc1OC)C1CN/C(=C\C(=O)c3cccc([N+](=O)[O-])c3)C(=O)N1CC2 (configuration not stated) |
| > 100 | COc1ccc2c(c1)C1CN/C(=C\C(=O)c3cccc(F)c3)C(=O)N1CC2 (configuration not stated) |
| > 100 | O=C(/C=C1\NCC2c3ccccc3CCN2C1=O)c1ccc(F)cc1 (configuration not stated) |
| 92 | COc1cc2c(cc1OC)C1CN/C(=C\C(=O)c3cccc(F)c3)C(=O)N1CC2 (configuration not stated) |
| > 100 | COc1ccc2c(c1)C1CN/C(=C\C(=O)c3ccccc3F)C(=O)N1CC2 (configuration not stated) |
| 91.5 | CC(C)(C)c1cc(O)ccc1O [CHEBI:78886] |
| > 100 | COc1cccc(C(=O)/C=C2\NCC3c4cc(OC)c(OC)cc4CCN3C2=O)c1 (configuration not stated) |
| > 100 | O=C(/C=C1\NCC2c3ccccc3CCN2C1=O)c1ccc([N+](=O)[O-])cc1 (configuration not stated) |
| > 100 | O=C(/C=C1\NCC2c3ccccc3CCN2C1=O)c1cccc([N+](=O)[O-])c1 (configuration not stated) |
| > 100 | COc1ccc2c(c1)C1CN/C(=C\C(=O)c3cccc([N+](=O)[O-])c3)C(=O)N1CC2 (configuration not stated) |
| 88 | COc1ccc2c(c1)C1CN/C(=C\C(=O)c3ccc(F)cc3)C(=O)N1CC2 (configuration not stated) |
| > 100 | COc1ccc2c(c1)CCN1C(=O)/C(=C/C(=O)c3ccccc3F)NCC21 (configuration not stated) |
| > 100 | O=C(/C=C1\NCC2c3ccccc3CCN2C1=O)c1ccccc1 (configuration not stated) |
| > 100 | COc1ccc2c(c1)CCN1C(=O)/C(=C/C(=O)c3cccc(F)c3)NCC21 (configuration not stated) |
| > 100 | O=C(/C=C1\NCC2c3ccccc3CCN2C1=O)c1ccc(Cl)cc1 (configuration not stated) |

Source: BindingDB's records for doi:10.1021/jm400944k (China Pharmaceutical University, 2013)
